Laboratory results taken from US20070149580A1, “USE OF PEROXISOME PROLIFERATOR ACTIVATED RECEPTOR DELTA AGONISTS FOR THE TREATMENT OF MS AND OTHER DEMYELINATING DISEASES” (AVENTIS PHARMACEUTICALS INC., priority 2004, published 2007).

Experiments:
human RXR receptor = assay: Cellular human RXR receptor luciferase reporter assay; type: cell-based; settings: Retinoid X receptor
Description: Determination of EC50 Values in the Cellular Human RXR Receptor Assay
Cell Based RXR Assay Protocol
To perform cell based assays a luciferase assay is performed in 96 well plates as follows: […]
• Aspirate medium from cells • Freeze plates at −20° C. (optional) • Thaw plates for 30 min (if necessary) • Add 50 μl Bright-Glo-Luciferase Assay Reagent (Promega, Cat. No. E2650) • Incubate for 10 min in the dark • Measure luminescence 2 sec per well (Wallac Microbeta) Data Analysis […]

[1] = test system: cultured rat oligodendrocytes; assay: Quantitative PCR of MBP mRNA in cultured rat oligodendrocytes; type: cell-based; settings: FIGS. 2 and 3
Text: • 1. Primary rat oligodendrocyte progenitor cells are obtained from the neocortex of newborn (postnatal days 2-3) rats or mice and are enriched, after removal of microglia, by mechanical separation from the astrocytic monolayer using a modification of the technique originally described by McCarthy and de Vellis (1980). • 2. Remove the meninges from neonatal rat brain and mechanically dissociate tissue. Plate cells on T75 flasks and feed cells with DMEM/F12+10% FBS. • 3. Collect oligodendrocytes growing on the astrocyte bed layer by shaking-off method fourteen days after the original prep date. Centrifuge the suspension and resuspend the cell pellet in serum free media (SFM; DMEM combined with 25 μg/ml transferring, 30 nM triiodothyronine, 20 nM hydrocortisone, 20 nM progesterone, 10 nM biotin, 1× trace elements, 30 nM selenium, 1 μg/ml putrescine, 0.1% BSA, 5 U/ml PenStrep, 10 μg/ml insulin) supplemented with the following growth factors: Platelet derived growth factor-AA (PDGF) and fibroblast growth factor-2 (FGF). • 4. Plate the cells on PDL-coated dishes and incubate at 37° C. with 6-7% CO2. • 5. Media components are replaced every 48 hr to keep the cells in a progenitor state. Progenitor Cell Passaging to Increase Cell Numbers for Screening Assays: • 1. […]
• 1. […] PPAR delta pathway member transcript expression is quantitated using Sybr Green PCR Master Mix. • 4. […]

SMILES | Human PPAR RXR EC50 (human RXR receptor) | MBP mRNA [1]
Cc1cc(SCc2sc(-c3ccc(C(F)(F)F)cc3)nc2C)ccc1OCC(=O)O [Compound 1] | No increase | enhancement
CCCc1c(OCCCOc2ccc(OCC(=O)O)cc2)ccc(C(C)=O)c1O [Compound 2] | No increase | enhancement
